# Data from PubChem BioAssay (NCI).
# “And” between values parts separate entries of the source, which are not always exact repeats. Equal values may be shown once.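 1) Cells in 96-well plates. 2) Compound, 48 h, 5 concentrations. 3) Linear interpolation between surrounding doses. 4) Unreached endpoint = highest concentration. The concentration for 50% growth inhibition is given as GI50. Definition used: TGI = concentration required for complete inhibition of growth.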
# Key:
# Experiment in all cases: growth of human tumour cells (NCI), 48 h
# MALME-3M melanoma = tested on: MALME-3M melanoma
# UO-31 renal = tested on: UO-31 renal
# SN12C renal = tested on: SN12C renal
# SF-268 CNS = tested on: SF-268 CNS
# OVCAR-8 ovarian = tested on: OVCAR-8 ovarian
# U251 CNS = tested on: U251 CNS
# HS 578T breast = tested on: HS 578T breast
# RXF 393 renal = tested on: RXF 393 renal
# OVCAR-3 ovarian = tested on: OVCAR-3 ovarian
# CAKI-1 renal = tested on: CAKI-1 renal
# A549 NSCLC = tested on: A549 NSCLC
# COLO 205 colon = tested on: COLO 205 colon
# PC-3 prostate = tested on: PC-3 prostate
# SK-MEL-28 melanoma = tested on: SK-MEL-28 melanoma
# NCI-H226 lung = tested on: NCI-H226 lung
# K-562 leukemia = tested on: K-562 leukemia
# 786-0 renal = tested on: 786-0 renal
# MDA-N = tested on: MDA-N
# SNB-19 CNS = tested on: SNB-19 CNS
# HOP-62 NSCLC = tested on: HOP-62 NSCLC
# T-47D breast = tested on: T-47D breast
# M14 melanoma = tested on: M14 melanoma
# TK-10 renal = tested on: TK-10 renal
# SK-OV-3 ovarian = tested on: SK-OV-3 ovarian
# EKVX NSCLC = tested on: EKVX NSCLC
# DU-145 prostate = tested on: DU-145 prostate
# CCRF-CEM leukemia = tested on: CCRF-CEM leukemia
# HCT-116 colon = tested on: HCT-116 colon
# SNB-75 CNS = tested on: SNB-75 CNS
# SF-295 CNS = tested on: SF-295 CNS
# UACC-257 melanoma = tested on: UACC-257 melanoma
# UACC-62 melanoma = tested on: UACC-62 melanoma
# MCF7 breast = tested on: MCF7 breast
# ACHN renal = tested on: ACHN renal
# HOP-92 NSCLC = tested on: HOP-92 NSCLC
# BT-549 breast = tested on: BT-549 breast
# MDA-MB-231 breast = tested on: MDA-MB-231 breast
# HCC-2998 colon = tested on: HCC-2998 colon
# OVCAR-4 ovarian = tested on: OVCAR-4 ovarian
# SK-MEL-2 melanoma = tested on: SK-MEL-2 melanoma
# KM12 colon = tested on: KM12 colon
# RPMI-8226 leukemia = tested on: RPMI-8226 leukemia
# HT29 colon = tested on: HT29 colon
# MDA-MB-435 = tested on: MDA-MB-435
# HL-60(TB) leukemia = tested on: HL-60(TB) leukemia
# OVCAR-5 ovarian = tested on: OVCAR-5 ovarian
# NCI-H522 lung = tested on: NCI-H522 lung
# NCI-H23 lung = tested on: NCI-H23 lung
# SF-539 CNS = tested on: SF-539 CNS
# NCI/ADR-RES ovarian = tested on: NCI/ADR-RES ovarian
# IGROV1 ovarian = tested on: IGROV1 ovarian
# SW-620 colon = tested on: SW-620 colon
# A498 renal = tested on: A498 renal
# HCT-15 colon = tested on: HCT-15 colon
compound,measurement,setting,value
CC[C@@]1(O)C(=O)OCc2c1cc1n(c2=O)Cc2c-1nc1ccccc1c2C=Nc1ccccc1N[C@@H]1c2cc3c(cc2[C@@H](c2cc(OC)c(O)c(OC)c2)[C@H]2C(=O)OC[C@@H]21)OCO3,TGI,MALME-3M melanoma,25600 nM and 3780 nM
same,GI50,UO-31 renal,129 nM and 74.5 nM
same,TGI,UO-31 renal,3120 nM and 593 nM
same,GI50,SN12C renal,63.2 nM and 23.4 nM
same,TGI,SN12C renal,> 100000 nM and 24600 nM
same,TGI,SF-268 CNS,> 82300 nM
same,GI50,OVCAR-8 ovarian,55.1 nM and 280 nM
same,TGI,OVCAR-8 ovarian,2150 nM and 4120 nM
same,TGI,U251 CNS,34600 nM
same,GI50,HS 578T breast,4870 nM and 875 nM
same,TGI,HS 578T breast,> 100000 nM
same,GI50,RXF 393 renal,317 nM and 61.9 nM
same,TGI,RXF 393 renal,5020 nM and 540 nM
same,GI50,OVCAR-3 ovarian,1460 nM and 337 nM
same,TGI,OVCAR-3 ovarian,10900 nM and 1810 nM
same,GI50,CAKI-1 renal,13.8 nM
same,TGI,CAKI-1 renal,807 nM and 494 nM
same,TGI,A549 NSCLC,7620 nM
same,GI50,COLO 205 colon,8860 nM and 929 nM
same,TGI,COLO 205 colon,24800 nM and > 10600 nM
same,TGI,PC-3 prostate,> 65800 nM
same,GI50,SK-MEL-28 melanoma,11400 nM and 1170 nM
same,TGI,SK-MEL-28 melanoma,35000 nM and > 50000 nM
same,TGI,NCI-H226 lung,3050 nM
same,TGI,K-562 leukemia,> 100000 nM
same,TGI,786-0 renal,339 nM
same,GI50,MDA-N,616 nM and 183 nM
same,TGI,MDA-N,28000 nM and 3120 nM
same,GI50,SNB-19 CNS,86.9 nM and 33.6 nM
same,TGI,SNB-19 CNS,> 52500 nM
same,TGI,HOP-62 NSCLC,466 nM and 154 nM
same,GI50,T-47D breast,8.36 nM
same,TGI,T-47D breast,163 nM
same,GI50,M14 melanoma,32.2 nM
same,TGI,M14 melanoma,6020 nM and 1030 nM
same,GI50,TK-10 renal,3490 nM and 549 nM
same,GI50,SK-OV-3 ovarian,1230 nM and 213 nM
same,TGI,SK-OV-3 ovarian,15200 nM
same,GI50,EKVX NSCLC,3770 nM and 791 nM
same,TGI,EKVX NSCLC,> 44500 nM
same,TGI,DU-145 prostate,97.9 nM and 43.2 nM
same,TGI,CCRF-CEM leukemia,> 100000 nM
same,TGI,HCT-116 colon,4480 nM and 2500 nM
same,TGI,SNB-75 CNS,5480 nM and 647 nM
same,GI50,SF-295 CNS,149 nM and 134 nM
same,TGI,SF-295 CNS,> 50000 nM
same,TGI,UACC-257 melanoma,66700 nM and 11300 nM
same,TGI,UACC-62 melanoma,13100 nM
same,GI50,MCF7 breast,< 5 nM
same,TGI,ACHN renal,961 nM and 171 nM
same,TGI,HOP-92 NSCLC,> 100000 nM
same,TGI,BT-549 breast,> 50000 nM
same,GI50,MDA-MB-231 breast,7040 nM
same,TGI,MDA-MB-231 breast,> 49800 nM
same,GI50,HCC-2998 colon,10300 nM
same,TGI,HCC-2998 colon,24600 nM
same,GI50,OVCAR-4 ovarian,17200 nM
same,TGI,OVCAR-4 ovarian,> 62600 nM
same,GI50,SK-MEL-2 melanoma,7140 nM and 1620 nM
same,TGI,SK-MEL-2 melanoma,36300 nM and 3860 nM
same,GI50,KM12 colon,4990 nM and 1740 nM
same,TGI,KM12 colon,> 41600 nM and 8080 nM
same,TGI,RPMI-8226 leukemia,> 50000 nM
same,GI50,HT29 colon,327 nM and 125 nM
same,TGI,HT29 colon,> 50000 nM
same,GI50,MDA-MB-435,358 nM and 450 nM
same,TGI,MDA-MB-435,24300 nM and > 50000 nM
same,GI50,HL-60(TB) leukemia,32.5 nM and 192 nM
same,TGI,HL-60(TB) leukemia,> 100000 nM
same,GI50,OVCAR-5 ovarian,847 nM and 281 nM
same,GI50,NCI-H522 lung,72 nM and 192 nM
same,GI50,NCI-H23 lung,35.6 nM and 15.6 nM
same,GI50,SF-539 CNS,22.8 nM and < 5 nM
same,TGI,SF-539 CNS,239 nM
same,GI50,NCI/ADR-RES ovarian,68.9 nM and 240 nM
same,TGI,NCI/ADR-RES ovarian,2880 nM and 2780 nM
same,GI50,IGROV1 ovarian,544 nM and 220 nM
same,TGI,IGROV1 ovarian,12400 nM and 7630 nM
same,TGI,SW-620 colon,> 100000 nM
same,GI50,A498 renal,325 nM and 142 nM
same,TGI,A498 renal,1790 nM and 680 nM
same,GI50,HCT-15 colon,880 nM and 190 nM
